# Laboratory results taken from paper PMC2955773 (ACS chemical biology, 2010).
# Assays:
# Format in all cases: cell-based
# [1] = system: HT29 cells; experiment: CellTiter Glo toxicity assay; details: 10 μM in HT29 cells
# [2] = molecular target: T1, Nox3 (Homo sapiens, UniProt Q9HBY0); experiment: HEK293-Nox3 selectivity assay
# T1 sequence (Q9HBY0 1-568): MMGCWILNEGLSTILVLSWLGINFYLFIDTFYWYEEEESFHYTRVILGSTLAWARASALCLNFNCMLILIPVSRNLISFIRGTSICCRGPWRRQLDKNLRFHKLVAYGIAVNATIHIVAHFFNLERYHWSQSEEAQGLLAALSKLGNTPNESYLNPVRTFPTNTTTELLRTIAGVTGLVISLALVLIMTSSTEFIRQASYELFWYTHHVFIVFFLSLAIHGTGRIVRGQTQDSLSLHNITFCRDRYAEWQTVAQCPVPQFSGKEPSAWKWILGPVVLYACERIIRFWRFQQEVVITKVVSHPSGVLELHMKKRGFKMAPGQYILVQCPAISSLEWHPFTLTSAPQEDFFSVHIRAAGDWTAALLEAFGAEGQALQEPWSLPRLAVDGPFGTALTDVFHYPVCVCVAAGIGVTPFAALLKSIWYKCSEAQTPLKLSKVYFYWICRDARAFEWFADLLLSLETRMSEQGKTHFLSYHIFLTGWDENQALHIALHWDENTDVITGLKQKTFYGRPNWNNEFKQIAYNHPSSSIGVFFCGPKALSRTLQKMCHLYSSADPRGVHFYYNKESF
# T1 sequence (P13498 2-195 partner limits assumed): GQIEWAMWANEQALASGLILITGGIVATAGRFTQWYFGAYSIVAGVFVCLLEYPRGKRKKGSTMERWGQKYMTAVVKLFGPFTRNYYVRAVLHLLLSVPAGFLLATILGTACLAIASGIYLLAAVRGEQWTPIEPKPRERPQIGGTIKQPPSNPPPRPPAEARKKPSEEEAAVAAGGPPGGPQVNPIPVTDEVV
# [3] = molecular target: T2, Nox2 (Homo sapiens, UniProt P04839); experiment: HEK293-Nox2 selectivity assay
# T2 sequence (P04839 2-570 limits assumed): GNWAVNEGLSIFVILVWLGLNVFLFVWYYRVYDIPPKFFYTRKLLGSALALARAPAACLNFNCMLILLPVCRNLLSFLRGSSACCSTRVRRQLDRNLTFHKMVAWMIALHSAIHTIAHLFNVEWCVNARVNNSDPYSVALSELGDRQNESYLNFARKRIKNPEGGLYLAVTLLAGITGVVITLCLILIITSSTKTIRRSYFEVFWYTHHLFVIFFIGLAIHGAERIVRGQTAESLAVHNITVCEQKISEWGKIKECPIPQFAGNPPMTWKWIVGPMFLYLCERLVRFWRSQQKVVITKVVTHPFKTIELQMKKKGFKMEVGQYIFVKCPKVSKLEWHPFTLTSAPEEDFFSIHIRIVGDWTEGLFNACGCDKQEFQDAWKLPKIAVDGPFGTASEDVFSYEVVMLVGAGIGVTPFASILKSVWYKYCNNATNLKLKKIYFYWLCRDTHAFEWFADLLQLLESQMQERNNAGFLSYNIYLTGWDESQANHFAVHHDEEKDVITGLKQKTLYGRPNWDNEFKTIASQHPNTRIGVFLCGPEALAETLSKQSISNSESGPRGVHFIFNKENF
# T2 sequence (P13498 2-195 partner limits assumed): T1 sequence (P13498 2-195 partner limits assumed)
# [4] = molecular target: T3, Nox4 (Homo sapiens, UniProt Q9NPH5); experiment: HEK293-Nox4 selectivity assay
# T3 sequence (Q9NPH5 1-578): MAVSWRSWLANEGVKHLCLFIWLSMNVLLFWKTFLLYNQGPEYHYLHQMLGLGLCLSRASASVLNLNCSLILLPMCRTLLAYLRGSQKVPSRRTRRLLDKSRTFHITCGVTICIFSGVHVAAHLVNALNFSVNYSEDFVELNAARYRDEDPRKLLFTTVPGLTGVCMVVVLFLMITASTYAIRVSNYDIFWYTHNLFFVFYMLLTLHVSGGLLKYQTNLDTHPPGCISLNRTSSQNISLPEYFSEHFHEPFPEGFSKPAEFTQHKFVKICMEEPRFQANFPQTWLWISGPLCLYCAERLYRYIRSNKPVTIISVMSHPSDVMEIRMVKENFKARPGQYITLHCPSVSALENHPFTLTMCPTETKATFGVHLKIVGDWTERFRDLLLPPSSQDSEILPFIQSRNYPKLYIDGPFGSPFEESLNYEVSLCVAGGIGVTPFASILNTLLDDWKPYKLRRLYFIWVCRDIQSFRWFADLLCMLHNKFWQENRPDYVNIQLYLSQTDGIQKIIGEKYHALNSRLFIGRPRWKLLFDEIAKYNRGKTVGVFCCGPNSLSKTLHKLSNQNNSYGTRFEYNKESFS
# T3 sequence (P13498 2-195 partner limits assumed): T1 sequence (P13498 2-195 partner limits assumed)
structure (smiles),measurement,setting,value
FC(F)(F)c1ccc2c(c1)Nc1ccccc1S2,cell death,[1],did not cause cell death
same,activity on other Nox isoforms,[2],only a marginal activity
same,activity on other Nox isoforms,[3],only a marginal activity
same,activity on other Nox isoforms,[4],only a marginal activity
